As usually defined, the EC50 is the concentration giving half of the maximal effect.

Each structure is given as a SMILES string.

The target of one assay is IRAK1 (Homo sapiens, UniProt P51617). Put plainly: IRAK1 ADP-Glo Kinase assay. The class given is biochemical. The following applies: 8 pt curve. In general terms: ADP-Glo turns the ADP formed in a reaction into a luminescent signal.
The target of the next assay is T1, IRAK4 (Homo sapiens, UniProt Q9NWZ3).
T1 construct: purchased Signalchem I12-10G-20
T1 sequence (Q9NWZ3 1-460): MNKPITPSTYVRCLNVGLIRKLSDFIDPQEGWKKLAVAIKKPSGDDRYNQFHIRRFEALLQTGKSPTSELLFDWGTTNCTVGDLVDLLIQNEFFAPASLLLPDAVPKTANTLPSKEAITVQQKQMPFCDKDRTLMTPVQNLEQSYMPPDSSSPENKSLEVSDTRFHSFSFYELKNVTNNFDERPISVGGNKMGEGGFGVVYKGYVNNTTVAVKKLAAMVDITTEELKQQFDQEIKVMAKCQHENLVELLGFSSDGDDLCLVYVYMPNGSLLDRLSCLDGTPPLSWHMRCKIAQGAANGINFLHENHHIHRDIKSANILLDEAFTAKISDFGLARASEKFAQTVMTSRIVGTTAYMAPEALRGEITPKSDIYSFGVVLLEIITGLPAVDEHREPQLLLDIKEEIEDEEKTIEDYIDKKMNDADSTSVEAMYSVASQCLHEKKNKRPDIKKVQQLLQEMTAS
In words: IRAK4 ADP-Glo assay. Type of assay: biochemical. The following applies: 8 pt curve; read-out: IRAK4 ADP-Glo Kinase, 8 pt. How it is done: IRAK4 Kinase Enzyme (Signalchem, I12-10G-20); 0.1M DTT (Signalchem, D86-09B); MBP Substrate (Signalchem, M42-51N); ADP Glo (Promega, V9101); 1M MgCl2 (Teknova, M03304); 1M Tris-HCl pH7.4 (Teknova, T1074); BSA (Sigma (A3059); Distilled H2O
Wallac Victor2 1420 Multilabel Counter
The ADP-Glo™ reagents were thawed at ambient temperature. The Kinase Detection Reagent was prepared by mixing kinase detection buffer with the lyophilized kinase detection substrate, and set aside.
A stock volume of 5× Reaction Kinase Buffer was made with a final concentration of 100 mM MgCl2, 200 mM Tris-HCl, and 0.5 mg/ml of BSA, in distilled H2O with a final pH7.4. A 2× working stock volume of Reaction Kinase Buffer was made containing a final concentration of […].
The components of IRAK4 Enzyme were thawed on ice. Diluted IRAK4 in 1× Kinase Reaction Buffer (diluted from 2× buffer) was prepared at […]. A […] working stock ATP Assay Solution was prepared in 1× Kinase Reaction Buffer (diluted from 2× buffer).
The compound was diluted in DMSO from 250 µM in 4-fold series dilutions for 8 points. Then diluted 1:5 in 2× Reaction Buffer in a 96 well plate. 1.01 was transferred to a 384 well plate in duplicate. […] 1 μl of 1 mg/ml stock solution of MBP substrate was added NOTE: MBP can be combined with ATP mix with equal volume and then added at 2 d/well. Final reaction volume was 5 μl.
The plate was centrifuged and the reaction mixture was incubated at room temperature for 60 minutes or at 30° C. for 30 minutes.
The reaction was terminated and the remaining ATP was depleted by adding 5 μl of ADP-Glo™ Reagent. The 384-well plate was centrifuged and then the reaction mixture was incubated for another 40 minutes at ambient temperature.
10 μl of the Kinase Detection Reagent was added. The plate was centrifuged and then the reaction mixture was incubated for another 30 minutes at ambient temperature.
The 384-well reaction plate was read using the WALLAC plate reader (Luminescence 0.1s).

The subject of assay [1] is TNFa. Put plainly: TNFa ELISA, dendritic cells, Gardiquimod stimulated. The settings on record: Homo sapiens, Dendritic cell, 10 pt curve. The class given is cell-based. (In general: In an ELISA, binding on a coated surface is turned into a signal by an enzyme label.)
Assay [2] has as its system TNFa. In words: TNFa ELISA, PBMC, Resiquimod (R848) stimulated. Type of assay: cell-based. The following applies: 10 pt curve.

Chain of IRAK1 (P51617 whole entry): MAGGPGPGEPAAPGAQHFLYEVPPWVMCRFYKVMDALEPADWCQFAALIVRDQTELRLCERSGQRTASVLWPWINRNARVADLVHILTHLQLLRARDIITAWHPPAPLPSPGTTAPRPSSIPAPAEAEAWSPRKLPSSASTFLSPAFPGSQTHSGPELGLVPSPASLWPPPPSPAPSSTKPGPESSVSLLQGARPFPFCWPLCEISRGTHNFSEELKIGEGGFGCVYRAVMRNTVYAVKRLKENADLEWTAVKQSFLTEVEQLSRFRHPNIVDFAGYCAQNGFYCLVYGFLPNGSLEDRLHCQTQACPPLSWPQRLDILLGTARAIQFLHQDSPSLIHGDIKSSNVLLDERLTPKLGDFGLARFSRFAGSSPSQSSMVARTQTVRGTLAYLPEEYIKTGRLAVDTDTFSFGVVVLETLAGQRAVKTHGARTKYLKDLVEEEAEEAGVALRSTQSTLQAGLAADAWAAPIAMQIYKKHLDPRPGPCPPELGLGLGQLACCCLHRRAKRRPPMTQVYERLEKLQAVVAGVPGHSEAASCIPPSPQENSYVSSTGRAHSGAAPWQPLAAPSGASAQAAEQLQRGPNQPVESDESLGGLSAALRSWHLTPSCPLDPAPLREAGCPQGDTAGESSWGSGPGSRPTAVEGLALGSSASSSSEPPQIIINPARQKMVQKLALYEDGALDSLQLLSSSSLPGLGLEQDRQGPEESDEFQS

With `C#CC(C)(O)c1c[nH]c(=O)c2cc3ccnc(OC[C@@H]4CCC(=O)N4)c3cc12` (stereo partly drawn) [I-37, 4-(2-hydroxybut-3-yn-2-yl)-6-(((S)-5-oxopyrrolidin-2-yl)methoxy)pyrido[3,4-g]isoquinolin-1(2H)-one], the IC50 against IRAK1 was determined as 11 µM; at IRAK4, 1210 nM. Further, in the assay with TNFa [1], the midpoint of the response, the EC50, lay at 44000 nM.
Take `CC(C)Cc1c[nH]c(=O)c2cc3ccnc(OC[C@@H]4CCC(=O)N4)c3cc12` [I-50, (S)-4-isobutyl-6-((5-oxopyrrolidin-2-yl)methoxy)pyrido[3,4-g]isoquinolin-1(2H)-one]: the IC50 on IRAK4 worked out at 2190 nM.
Take `C=Cc1c[nH]c(=O)c2cc3ccnc(OC[C@@H]4CCC(=O)N4)c3cc12` [I-7, (S)-6-((5-oxopyrrolidin-2-yl)methoxy)-4-vinylpyrido[3,4-g]isoquinolin-1(2H)-one]: the IC50 against IRAK1 amounted to 4.28 µM; at IRAK4, 4.8 nM. In addition, the EC50 in the assay on TNFa [1] worked out at 215 nM; with TNFa [2], 192 nM.
For `CC[C@@H]1[C@H](F)C(=O)N[C@@H]1COc1nccc2cc3c(=O)[nH]cc(C#N)c3cc12` [I-47, 6-(((2S,3S,4S)-3-ethyl-4-fluoro-5-oxopyrrolidin-2-yl)methoxy)-1-oxo-1,2-dihydropyrido[3,4-g]isoquinoline-4-carbonitrile], in that order: 0.531 µM, 35 nM, 78.2 nM and 78.8 nM.
For the compound `O=C1CC[C@@H](COc2nccc3cc4c(=O)[nH]ccc4cc23)N1` [I-5, (S)-6-((5-oxopyrrolidin-2-yl)methoxy)pyrido[3,4-g]isoquinolin-1(2H)-one], the IC50 on IRAK4 came to 160 nM. Further, the figures for the EC50 with TNFa [1] and in the assay on TNFa [2] were 5680 nM and 4390 nM, respectively.
With `O=C1CC[C@@H](COc2nccc3cc4c(=O)[nH]cc(CC(F)(F)F)c4cc23)N1` [I-19, (S)-6-((5-oxopyrrolidin-2-yl)methoxy)-4-(2,2,2-trifluoroethyl)pyrido[3,4-g]isoquinolin-1(2H)-one], the IC50 against IRAK1 turned out to be 14.8 µM; at IRAK4 it was 105 nM. Besides, the EC50 with TNFa [1] amounted to 177 nM; in the assay on TNFa [2], 208 nM.
Regarding `CS(=O)(=O)c1c[nH]c(=O)c2cc3ccnc(OC[C@@H]4CCC(=O)N4)c3cc12` [I-48, (S)-4-(methylsulfonyl)-6-((5-oxopyrrolidin-2-yl)methoxy)pyrido[3,4-g]isoquinolin-1(2H)-one], the IC50 on IRAK4 was 13800 nM. The same compound yielded an EC50 in the assay on TNFa [2] of 10100 nM.
The like results for `CC(=O)c1c[nH]c(=O)c2cc3ccnc(OC[C@@H]4CCC(=O)N4)c3cc12` [I-28, (S)-4-acetyl-6-((5-oxopyrrolidin-2-yl)methoxy)pyrido[3,4-g]isoquinolin-1(2H)-one] were, in that order, 27.3 nM and 5650 nM.
`CC[C@@H]1[C@H](F)C(=O)N[C@@H]1COc1nccc2cc3c(=O)[nH]cc(I)c3cc12` [I-44, 6-(((2S,3S,4S)-3-ethyl-4-fluoro-5-oxopyrrolidin-2-yl)methoxy)-4-iodopyrido[3,4-g]isoquinolin-1(2H)-one]: the IC50 against IRAK1 worked out at 0.0277 µM; at IRAK4, 4.2 nM. The EC50 came to 2 nM in the assay with TNFa [1] and 5.2 nM in the assay on TNFa [2].
`O=C1CC[C@@H](COc2nccc3cc4c(=O)[nH]cc(C5CNC5)c4cc23)N1` [I-23, (S)-4-(azetidin-3-yl)-6-((5-oxopyrrolidin-2-yl)methoxy)pyrido[3,4-g]isoquinolin-1(2H)-one]: the IC50 at IRAK4 worked out at 2400 nM.
On to `NC(=O)Cc1c[nH]c(=O)c2cc3ccnc(OC[C@@H]4CCC(=O)N4)c3cc12` [I-41, (S)-2-(1-oxo-6-((5-oxopyrrolidin-2-yl)methoxy)-1,2-dihydropyrido[3,4-g]isoquinolin-4-yl)acetamide], for which, on IRAK4, the IC50 is 2540 nM.
As to `CCc1c[nH]c(=O)c2cc3ccnc(OC[C@@H]4CCC(=O)N4)c3cc12` [I-8, (S)-4-ethyl-6-((5-oxopyrrolidin-2-yl)methoxy)pyrido[3,4-g]isoquinolin-1(2H)-one], the values for the IC50 on IRAK1 and at IRAK4 were 7.23 µM and 8.5 nM, respectively. The figures for the EC50 in the assay on TNFa [1] and in the assay on TNFa [2] were 148 nM and 112 nM, respectively.
For `CCCc1c[nH]c(=O)c2cc3ccnc(OC[C@@H]4CCC(=O)N4)c3cc12` [I-10, (S)-6-((5-oxopyrrolidin-2-yl)methoxy)-4-propylpyrido[3,4-g]isoquinolin-1(2H)-one], in that order: 11.1 µM, 74.2 nM, 613 nM and 369 nM.
Turning to `CC(C)(O)C#Cc1c[nH]c(=O)c2cc3ccnc(OC[C@@H]4CCC(=O)N4)c3cc12` [I-49, (S)-4-(3-hydroxy-3-methylbut-1-yn-1-yl)-6-((5-oxopyrrolidin-2-yl)methoxy)pyrido[3,4-g]isoquinolin-1(2H)-one], the EC50 with TNFa [2] was 1440 nM.
As for `O=C1CC[C@@H](COc2nccc3cc4c(=O)[nH]cc(-c5cn[nH]c5)c4cc23)N1` [I-33, (S)-6-((5-oxopyrrolidin-2-yl)methoxy)-4-(1H-pyrazol-4-yl)pyrido[3,4-g]isoquinolin-1(2H)-one], the IC50 against IRAK1 stood at 3.01 µM; at IRAK4, 28 nM. The same compound registered an EC50 with TNFa [1] of 25600 nM.
In the case of `CC(O)c1c[nH]c(=O)c2cc3ccnc(OC[C@@H]4CCC(=O)N4)c3cc12` (stereo partly drawn) [I-36, 4-(1-hydroxyethyl)-6-(((S)-5-oxopyrrolidin-2-yl)methoxy)pyrido[3,4-g]isoquinolin-1(2H)-one], the IC50 was 11.3 µM at IRAK1 and 62.7 nM at IRAK4. Further, the EC50 with TNFa [1] worked out at 63800 nM; with TNFa [2], 1030 nM.
For `C=CCc1c[nH]c(=O)c2cc3ccnc(OC[C@@H]4CCC(=O)N4)c3cc12` [I-9, (S)-4-allyl-6-((5-oxopyrrolidin-2-yl)methoxy)pyrido[3,4-g]isoquinolin-1(2H)-one], in that order: 6.86 µM, 14.5 nM, 419 nM and 376 nM.
Take `NC(=O)c1c[nH]c(=O)c2cc3ccnc(OC[C@@H]4CCC(=O)N4)c3cc12` [I-27, (S)-1-oxo-6-((5-oxopyrrolidin-2-yl)methoxy)-1,2-dihydropyrido[3,4-g]isoquinoline-4-carboxamide]: the IC50 at IRAK4 came to 988 nM.
As for `C=C(C)c1c[nH]c(=O)c2cc3ccnc(OC[C@@H]4CCC(=O)N4)c3cc12` [I-11, (S)-6-((5-oxopyrrolidin-2-yl)methoxy)-4-(prop-1-en-2-yl)pyrido[3,4-g]isoquinolin-1(2H)-one], the IC50 on IRAK1 is 6.49 µM; at IRAK4 it was 7.8 nM. In addition, the response with TNFa [2] was half-maximal at 75 nM (EC50).
The like results for `N#Cc1c[nH]c(=O)c2cc3ccnc(OC[C@@H]4CCC(=O)N4)c3cc12` [I-16, (S)-1-oxo-6-((5-oxopyrrolidin-2-yl)methoxy)-1,2-dihydropyrido[3,4-g]isoquinoline-4-carbonitrile] were, in that order, 10.3 µM, 22.2 nM and 1660 nM.
On to `CC[C@@H]1[C@H](F)C(=O)N[C@@H]1COc1nccc2cc3c(=O)[nH]cc(C(C)C)c3cc12` [I-51, 6-(((2S,3S,4S)-3-ethyl-4-fluoro-5-oxopyrrolidin-2-yl)methoxy)-4-isopropylpyrido[3,4-g]isoquinolin-1(2H)-one], for which the IC50 was determined as 0.0774 µM against IRAK1 and 10 nM at IRAK4. This compound yielded an EC50 in the assay on TNFa [2] of 4 nM.
For the compound `O=C1CC[C@@H](COc2nccc3cc4c(=O)[nH]cc(I)c4cc23)N1` [I-6, (S)-4-iodo-6-((5-oxopyrrolidin-2-yl)methoxy)pyrido[3,4-g]isoquinolin-1(2H)-one], at IRAK4, the IC50 is 3.1 nM. The EC50 in the assay with TNFa [1] was found to be 45.8 nM; in the assay with TNFa [2] it was 32.2 nM.
`CC(C)(N)c1c[nH]c(=O)c2cc3ccnc(OC[C@@H]4CCC(=O)N4)c3cc12` [I-26, (S)-4-(2-aminopropan-2-yl)-6-((5-oxopyrrolidin-2-yl)methoxy)pyrido[3,4-g]isoquinolin-1(2H)-one]: at IRAK4, the IC50 stood at 5350 nM. For the same compound, in the assay on TNFa [2], the EC50 was 1780 nM.

The values above are taken from patent publication US12459941B2, “Tricyclic IRAK inhibitors” (Rigel Pharmaceuticals, Inc., priority 2022, dated 2025).
